Assay results published in patent US20090209605A1, “NEMATICIDAL COMPOSITIONS” (Devgen N.V., priority 2004, published 2009).

Legend:
Format in all cases: in vivo
tomato (cv. Rio Grande) = experiment: Pot Assay 2: root development (vigor of roots) of tomato; conditions: visual value 0 to 10 (10 equal to control)
Method: Phytotoxicity of compounds as described herein when used as a nematicide, was measured as follows. […] At that moment, plant emergence was assessed for the plants treated with any of the compounds as described herein, by counting the number of plants per compound-concentration.
Vigor of roots was also assessed once the plants are well established so as not to loose plants. To assess vigor of the plants or roots, a visual value ranging from 0 to 10 (0 no vigor, 10 equal to control) was scored per compound-concentration.

[1] = tested on: Meloidogyne incognita nematodes; experiment: Pot Assay 1: Meloidogyne infection of potato, egg masses/galls on roots; conditions: potato in pot, week 8 after inoculation
Method: 500 ml clay pots were filled with 400 ml of silver sand. One tuber of potato ( Solanum tuberosum cv. Bintje) was planted in the sand. After 2 to 3 weeks incubation, the potato plant was sufficiently developed to be inoculated.
Plants were grown under the usual standard greenhouse conditions at 14° C.-18° C., with 16 hours light and 8 hours dark and 80-90% relative humidity. The pots were watered using individual drippers and fertilizers were added under the form of macro- and micro nutrients according to plant growth requirements. When needed, the plants were sprayed with fungicides and insecticides.
The compounds as described herein were added one day before inoculation. The compounds were dissolved in a 20 ml DMSO-solution and spread over the sand surface. The final concentration is calculated under the assumption that the compound is diffused entirely in the pot. This process occurred during two days at the normal greenhouse conditions described above.
After compound incubation, approximately 1500 juveniles of Meloidogyne incognita nematodes were added to the pots.
The pots were incubated at the described greenhouse conditions until nematode development was completed. At week 8 after inoculation the number of galls formed on the roots was counted after washing off the sandy substrate. Also the effect of the compound on the plant development was recorded.
Every compound was tested in three replicates. Positive control plants were treated with different concentrations of aldicarb, a known nematicide. Negative controls involved 12 replicates of double negative controls (no compound, no nematode), 12 replicates of single negative controls (no compound, no DMSO, with nematode), 24 replicates of DMSO controls (DMSO solution, with nematode).
As assessment of the root development was taken into account.

Meloidogyne nematodes = experiment: Pot Assay 2: Meloidogyne infection of tomato, % infestation of roots; conditions: tomato in infested soil
Method: The soil used in this assay originated from a plot, heavily infested with Meloidogyne nematodes. Part of this soil was sterilized by autoclaving and was used as negative control. Sandy soil, which was not infested with nematodes, was pursued from a commercial source.
Plastic seedling trays with wells of 60 ml capacity were filled with about 40 ml of soil per well. 5 ml of water per well was used for irrigation.
Compounds as described herein were tested in 4 different rates and with 12 replicates for each concentration. The compounds as described herein were stored as dry films of 4 different concentrations. The day of the application of the compounds, all the dry films were dissolved in 60 ml water and poured into the 12 replicate wells: 5 ml per well. Every tray of 12 wells was identified with a label, indicating compound and concentration used. The 4 final rates in the soil of the tested compound were approximately 0.05 mg, 0.20 mg, 1 mg and 5 mg. These amounts translate to field application rates respectively as 30, 120, 600 and 3000 g per hectare.
3-5 days after application of the tested compound, tomato seeds (cv. Rio Grande) were sown in the wells by hand, at about 2 cm deep. A light cover of vermiculite on the surface was used to avoid dehydration. Plants were irrigated by micro-nebulization 3-4 times per week at a rate of 3 L/m^2, weeded by hand and treated with fertilizers, fungicide and insecticides when needed.
Their resistance against nematode infection was monitored and the efficacy of compounds described herein as a nematicide was measured. Furthermore the phytotoxicity of the test compounds was evaluated.
Efficacy of the compounds described herein as nematicide was measured by giving the roots a percentage of infestation measured as follows. Plants were grown to reach good development of the roots, which corresponds to plants grown to about 10 cm high at about one month after emergence. After removal of the soil from the roots by rinsing with water, the roots were visually inspected and root galls were counted on 4 plants of the set of 12 replicate plants.
Positive control plants were treated with a 10 micromolar concentration of oxamyl (Vydate, 10% SL; the rate of 10 micromolar corresponds to a commercial rate of 20 l/ha), a known nematicide. Negative controls involved double negative controls (no compound, sterile soil), and single negative controls (no compound, with nematode infested soil).

Meloidogyne incognita = experiment: Root infestation on agar plate: root knot count on potato microplant roots; conditions: 60 μM in agar, galls counted 5 weeks after inoculation, four replicates
Method: 9 cm petri dishes were filled with a 15 ml agar. One stem cutting of a potato microplant (Solanum tuberosum cv. Desirée) was placed on top of the agar layer. After 2 to 3 weeks of incubation at 20° C., the root system was sufficiently developed to be inoculated.
The test compounds (see Table 1) were added 2 days before inoculation by way of spreading a 2 ml DMSO-solution with the compound over the agar and allowing the compound to diffuse in the agar during two days at constant temperature of 20° C. During incubation, the plates are protected from light in a dark incubator. The resulting concentration of each compound in each agar plate was 60 μM.
After incubation, approximately 400 axenic juveniles of Meloidogyne incognita species were added to the plate.
The plates were incubated in the dark at a constant temperature of 20° C. and 5 weeks after inoculation the number of galls formed on the roots were determined by counting. Also any toxic effect of the test compounds on the roots was recorded. 8 weeks after inoculation the plates were stored at low temperature.
Each compound was tested in four replicates. Positive controls were treated with different concentrations of Aldicarb, a known nematicide. Negative controls included 5 replicates of double negative controls (no compound, no nematode), 5 replicates of single negative controls (no compound, with nematode) and 5 replicates of DMSO controls (DMSO solution, with nematode).

Heterodera nematode = experiment: Pot Assay 3: Heterodera infection of sugar beet, crop vigor and crop height; conditions: Rate 0.05 mg; infested soil
Description: The soil used in this assay originated from a Heterodera nematode infested sugar plot of which the infestation was confirmed by means of several soil analyses. Each pot was filled up with a soil mixture composed as follows: a) the infested soil was constituted by silt loam soil (about 600 g/pot) mixed with sterile peat (about 600 g/pot) and sterile cork (about 200 g/pot); b) the sterile soil was instead constituted only by sterile peat (1200 g/pot) and sterile cork (200 g/pot).
(§1) Each compound or compound mixture as described herein was tested in 4 different rates with 4 replicates per rate. One pot per replicate was used in which 18 beava sugar beet seeds (variety GEA (KWS)) were sown. After crop germination, the number of plants was reduced to 10 plants. The 4 rates added to the soil of the tested compounds or compound mixtures were 0.05 mg, 0.20 mg, 1 mg and 5 mg. These amounts translate to field application rates respectively as 30, 120, 600 and 3000 g per hectare.
Efficacy of the compounds described herein as nematicide was measured by visual inspection of the crop vigor and the crop height. The crop vigor evaluation is based on a 0-100 scale, where 0 is “no vigor” and 100 is “maximum vigor”. The crop height development is based on a measurement, in cm, per plant, excluding the root system.
Positive control plants were treated with Oxamyl (Vydate 5 G, 5% gr) at a rate of 40 kg fp per ha. Negative controls involved single negative controls (no compound, with nematode infested soil; referenced as “Untreated 1”) and double negative controls (no compound, sterile soil; referenced as “Untreated 2”).

[2] = tested on: sugar beet (variety GEA (KWS)); experiment: Pot Assay 3: phytotoxicity, number of sugar beet plants emerged; conditions: Rate 0.05 mg
Method: as §1
Phytotoxicity assessments were carried by assessing any possible effects of the chemicals on the crop, such as chlorosis, yellowing, stunting, in comparison to the untreated control without nematodes.

[3] = tested on: root-knot nematode (Meloidogyne spp); experiment: Nematicide field trial on cucumber: root galling and yield; conditions: for Average root galling: 0-5 Lamberti scale
Method: Open ground grown cucumber (Cucumis sativus cv Carine) were grown on sandy soil with a natural root-knot nematode (Meloidogyne spp) population. Soil samples, collected prior to planting, contained on average 8 J2 juveniles per 100 g soil. A program of 4 applications with intervals of about 14 days was started six days after transplantation.
(§2) An experimental pattern at Complete Randomized Blocks with four replicas was adopted. Besides the experimental products, each test also included an untreated control and a treatment with the standard commercial product VYDATE 10L (10%) applied in accordance to label instructions.
[…] The level of nematode attack of the root system at the time of harvesting was assessed by means of the lamberti scoring.

[4] = tested on: root-knot nematode (Meloidogyne spp); experiment: Nematicide field trial on tomato: root galling and yield; conditions: for Average root galling: 0-5 Lamberti scale
Method: Open field tomatoes (Lycopersicon esculentum, variety incas) were grown on sandy soil with a natural root-knot nematode (Meloidogyne spp) population. Soil samples, collected prior to planting, contained on average 113 J2 juveniles per 100 g soil. A program of 5 applications with intervals of about 14 days was started two days after transplantation.
as §2
The read-outs are the average yield of the marketable tomatoes per plant (Table 7). The level of nematode attack of the root system at the time of harvesting was assessed by means of the lamberti scoring.

[5] = Product Rate 1 (footnote g ai/ha)
[6] = Product Rate 2 (footnote g ai/ha)

Row | SMILES | ROOT DEV. (tomato (cv. Rio Grande); RATE 1 mg) | number of egg masses (galls) on roots, Replicate 2 ([1]; 10 μM) | number of egg masses (galls) on roots, Replicate 2 ([1]; 50 μM) | number of egg masses (galls) on roots, Replicate 3 ([1]; 50 μM) | % INF. (% Infestation) (Meloidogyne nematodes; RATE 1 mg) [%] | Root knot count, average of the replicate counts (Meloidogyne incognita) | ROOT DEV. (tomato (cv. Rio Grande); RATE 0.05 mg) | ROOT DEV. (tomato (cv. Rio Grande); RATE 0.2 mg) | % INF. (% Infestation) (Meloidogyne nematodes; RATE 0.05 mg) [%] | % INF. (% Infestation) (Meloidogyne nematodes; RATE 0.2 mg) [%] | other results
1 | CC1COC(Cn2cncn2)(c2ccc(Oc3ccc(Cl)cc3)cc2Cl)O1 (mixture of isomers) [XLIX] | 7.9 | 60 | 60 | 10 | 0.0 | 19.25 |  |  |  |  | number of egg masses (galls) on roots, Replicate 1 ([1]; 10 μM): 70; number of egg masses (galls) on roots, Replicate 3 ([1]; 10 μM): 40
2 | COC(=O)c1sccc1S(=O)(=O)NC(=O)Nc1nc(C)nc(OC)n1 [XL] |  |  |  |  |  | 0 |  |  |  |  | crop height (cm) (Heterodera nematode): 12 cm; crop vigor (max 100%) (Heterodera nematode): 90%
3 | c1coc(-c2nc3ccccc3[nH]2)c1 [XVI] |  | 50 | 40 | 15 |  | 14.5 |  |  |  |  | # crops emerged (max 18) [2]: 18; crop height (cm) (Heterodera nematode): 13 cm; crop vigor (max 100%) (Heterodera nematode): 90%
4 | CCN(Cc1ccc(Cl)nc1)/C(=C/[N+](=O)[O-])NC [XXIX] | 7.5 |  | 40 | 40 | 2.5 | 17.5 | 7.9 | 7.7 | 3.8 | 1.3 | ROOT DEV. (tomato (cv. Rio Grande); RATE 5 mg): 6.6; number of egg masses (galls) on roots, Replicate 1 ([1]; 50 μM): 50; % INF. (% Infestation) (Meloidogyne nematodes; RATE 5 mg): 5.0%
5 | CC(C)NC(=O)N1CC(=O)N(c2cc(Cl)cc(Cl)c2)C1=O [XXV] |  | 50 | 25 | 20 |  | 17 |  |  |  |  | number of egg masses (galls) on roots, Replicate 1 ([1]; 10 μM): 50; number of egg masses (galls) on roots, Replicate 1 ([1]; 50 μM): 30; Average yield of marketable fruits ([3]; Product Rate 500 g ai/ha): 6.7 kg/plant/pot; Average root galling ([3]; Product Rate 500 g ai/ha): 2.75; Average yield of marketable fruits ([3]; Product Rate 1500 g ai/ha): 9.1 kg/plant/pot; Average root galling ([3]; Product Rate 1500 g ai/ha): 1.75; Average yield of marketable fruits [4, 5]: 1.45 kg/plant/pot; Average root galling [4, 5]: 1.8; Average yield of marketable fruits [4, 6]: 1.33 kg/plant/pot; Average root galling [4, 6]: 1.3
6 | CCCCOCCOCCOCc1cc2c(cc1CCC)OCO2 [XXXII] | 7.6 |  |  |  | 1.3 | 19.25 | 6.5 | 7.6 | 0.0 | 0.0 | ROOT DEV. (tomato (cv. Rio Grande); RATE 5 mg): 6.7; % INF. (% Infestation) (Meloidogyne nematodes; RATE 5 mg): 2.5%
7 | COc1ccc(/C(=C/C(=O)N2CCOCC2)c2ccc(Cl)cc2)cc1OC [X] |  |  |  |  |  | 10.5 | 6.8 | 7.9 | 5.0 | 1.3 | 
